The values that follow come from US20240002416A1 (Rheinische-Friedrich-Wilhelms-Universität Bonn, priority 2020, published 2024).

For data set [1], the target named is T1, human MRGPRX4-83L (Homo sapiens, UniProt Q96LA9).
T1 construct: host or cells: CHO β-arrestin cells
In words: β-arrestin assay (CHO β-arrestin ARMS1-ProLink 2 human MRGPRX4 83L). The format is cell-based. A digest of the protocol:
(§1)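 β-Arrestin recruitment measured in recombinant CHO cells expressing human MRGPRX4, read as β-galactosidase enzyme-fragment complementation. Calcium mobilization run in recombinant astrocytes expressing the 83L variant or in LN229 glioblastoma cells natively expressing the 83S variant.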

In data set [2] the target is T1, human MRGPRX4-83L. In words: Calcium assay (human MRGPRX4 83L), recombinant astrocytes. It is filed as cell-based. The procedure, abridged: as §1
The target in data set [3] is T2, MRGPRX4-83S (Homo sapiens, UniProt Q96LA9, L83S). In words: β-arrestin assay (CHO β-arrestin human MRGPRX4-83S). It is filed as cell-based. Further details: host or cells: CHO β-arrestin cells. A digest of the protocol:
as §1

For data set [4], the target named is T2, MRGPRX4-83S. In words: Calcium assay (human glioblastoma LN229 cells expressing the MRGPRX4-83S). Details: LN229 glioblastoma cells natively expressing the MRGPRX4-83S; endogenous in cells; host or cells: LN229 human glioblastoma cells. It is filed as cell-based. Conditions: for Emax: LN-229. The procedure, abridged: as §1
Where [5] appears, read: Table 4, efficacy based on maximal effect of 100 nM B-16 (set as 100%), read-out: Emax.
Setting [6] is: Table 4, β-arrestin recruitment, CHO cells, MRGPRX4-83L, read-out: EC50 ± SEM.
Where [7] appears, read: Table 4, calcium mobilization, MRGPRX4-83L, read-out: EC50 ± SEM.
Setting [8] is: Table 4, efficacy based on maximal effect of 1 μM B-16 (set as 100%), read-out: Emax.
[9] abbreviates: Table 3, efficacy based on 100 nM B-16 (set as 100%), read-out: Emax.
The mark [10] stands for this setting: Table 3, β-arrestin recruitment, CHO cells, MRGPRX4-83S, read-out: EC50 ± SEM.
The mark [11] stands for this setting: Table 3, efficacy based on 30 μM H-1 (set as 100%), read-out: Emax.
The mark [12] stands for this setting: Table 3, calcium mobilization, LN229 cells, MRGPRX4-83S, read-out: EC50 ± SEM.

T1 sequence (Q96LA9 whole entry): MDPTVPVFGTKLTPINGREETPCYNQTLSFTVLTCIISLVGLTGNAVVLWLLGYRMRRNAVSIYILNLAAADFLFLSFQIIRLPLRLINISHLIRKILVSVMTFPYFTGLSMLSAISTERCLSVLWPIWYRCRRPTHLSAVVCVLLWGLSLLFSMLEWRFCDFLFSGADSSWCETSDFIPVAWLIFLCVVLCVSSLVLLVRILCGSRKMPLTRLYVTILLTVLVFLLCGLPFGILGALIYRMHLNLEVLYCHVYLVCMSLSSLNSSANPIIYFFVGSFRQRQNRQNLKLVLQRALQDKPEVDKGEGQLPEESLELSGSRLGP
T2 sequence (Q96LA9 whole entry L83S): as the sequence (Q96LA9 whole entry) above, with L83S counted along it

The molecule `C#CCn1c(=O)c2c(nc(CCc3ccccc3F)n2C)n(CCCCP(=O)(O)O)c1=O` [B-28, (4-(8-(2-Fluorophenethyl)-7-methyl-2,6-dioxo-1-(prop-2-yn-1-yl)-1,2,6,7-tetrahydro-3H-purin-3-yl)butyl)phosphonic acid] came in with a melting point of 217 to 219 °C. Further, the Emax in data set [1] (setting [5]) was found to be 118%. Further, the EC50 in data set [1] (setting [6]) came out at 113 ± 39 nM. For the same molecule, the half-maximal effective concentration (EC50) in data set [2] (setting [7]) turned out to be 39.7 ± 9.6 nM. Also, the Emax in data set [2] (setting [8]) came out at 62%. The Emax in data set [3] (setting [9]) came out at 78%. For the same molecule, in data set [3] (setting [10]), the 50% effective concentration (EC50) came out at 1.48 ± 0.18 nM. Besides, in data set [4] (setting [11]), the Emax was determined as 92%. Besides, in data set [4] (setting [12]), the concentration giving a half-maximal response (EC50) amounted to 0.284 ± 0.074 nM.
`C#CCn1c(=O)c2c(nc(CCc3c(Cl)cccc3Cl)n2CC)n(CCCCP(=O)(O)O)c1=O` [B-34, (4-(8-(2,6-Dichlorophenethyl)-7-ethyl-2,6-dioxo-1-(prop-2-yn-1-yl)-1,2,6,7-tetrahydro-3H-purin-3-yl)butyl)phosphonic acid] gave a melting point of 207 to 209 °C. The Emax in data set [1] (setting [5]) worked out at 95%. Also, the EC50 in data set [1] (setting [6]) turned out to be 9.02 ± 1.49 nM. In addition, in data set [2] (setting [7]), the EC50 was 2 ± 0.94 nM. Besides, the Emax in data set [2] (setting [8]) amounted to 97%. Moreover, the Emax in data set [3] (setting [9]) amounted to 110%. Moreover, the EC50 in data set [3] (setting [10]) worked out at 0.146 ± 0.033 nM. In addition, the maximum response (Emax) in data set [4] (setting [11]) came out at 104%. Further, the concentration for a half-maximal effect (EC50) in data set [4] (setting [12]) was found to be 0.363 ± 0.109 nM.
In turn, `C#CCn1c(=O)c2c(nc(CCc3ccccc3Br)n2CC2CCCCC2)n(CCCCP(=O)(O)O)c1=O` [B-36, (4-(8-(2-Bromophenethyl)-7-(cyclohexylmethyl)-2,6-dioxo-1-(prop-2-yn-1-yl)-1,2,6,7-tetrahydro-3H-purin-3-yl)butyl)phosphonic acid] gave a melting point of 143 to 145 °C. In data set [1] (setting [5]), the Emax came to 95%. Besides, the EC50 in data set [1] (setting [6]) stood at 1250 ± 410 nM. In data set [2] (setting [7]), the concentration for a half-maximal effect (EC50) was 25.2 ± 3 nM. The maximum response (Emax) in data set [2] (setting [8]) turned out to be 109%. In data set [3] (setting [9]), the Emax came out at 84%. In addition, the EC50 in data set [3] (setting [10]) was found to be 4.28 ± 0.83 nM. Also, in data set [4] (setting [11]), the Emax is 112%. Moreover, the EC50 in data set [4] (setting [12]) came out at 0.787 ± 0.164 nM.
On to `C#CCn1c(=O)c2c(nc(CCc3ccc(Br)cc3)n2CC2CCCC2)n(CCCCP(=O)(O)O)c1=O` [B-38, (4-(8-(4-Bromophenethyl)-7-(cyclopentylmethyl)-2,6-dioxo-1-(prop-2-yn-1-yl)-1,2,6,7-tetrahydro-3H-purin-3-yl)butyl)phosphonic acid], for which the melting point fell in the range of 129 to 131 °C. Besides, in data set [1] (setting [5]), the Emax was determined as 92%. Moreover, the EC50 in data set [1] (setting [6]) turned out to be 1.44 ± 0.32 nM. Further, in data set [2], the IC50 stood at 949 ± 308 nM. The EC50 in data set [2] (setting [7]) came to 267 ± 153 nM. For the same molecule, in data set [2] (setting [8]), the Emax is 9%. Moreover, the Emax in data set [3] (setting [9]) stood at 79%. Also, the concentration for a half-maximal effect (EC50) in data set [3] (setting [10]) was found to be 13.4 ± 0.8 nM. The concentration for half-maximal inhibition (IC50) in data set [4] is 5.23 ± 2.2 nM. Further, the Emax in data set [4] (setting [11]) stood at 6%. Also, the EC50 in data set [4] (setting [12]) came out at 5.81 ± 0.58 nM.
Turning to `C#CCn1c(=O)c2c(nc(CCc3ccccc3Br)n2CC2CCC2)n(CCCCP(=O)(O)O)c1=O` [B-45, (4-(8-(2-Bromophenethyl)-7-(cyclobutylmethyl)-2,6-dioxo-1-(prop-2-yn-1-yl)-1,2,6,7-tetrahydro-3H-purin-3-yl)butyl)phosphonic acid], the melting point was in the range of 167 to 169 °C. Further, the maximal effect (Emax) in data set [1] (setting [5]) came out at 99%. Moreover, the 50% effective concentration (EC50) in data set [1] (setting [6]) was 85.1 ± 27.9 nM. For the same molecule, the EC50 in data set [2] (setting [7]) amounted to 12.7 nM. The Emax in data set [2] (setting [8]) was determined as 101%. The Emax in data set [3] (setting [9]) was 93%. The 50% effective concentration (EC50) in data set [3] (setting [10]) amounted to 0.298 ± 0.05 nM. Also, the maximum response (Emax) in data set [4] (setting [11]) came to 97%. The EC50 in data set [4] (setting [12]) is 0.32 ± 0.087 nM.
Turning to `C#CCn1c(=O)c2c(nc(CCc3ccccc3Br)n2C(C)C)n(CCCCP(=O)(O)O)c1=O` [B-46, (4-(8-(2-Bromophenethyl)-7-isopropyl-2,6-dioxo-1-(prop-2-yn-1-yl)-1,2,6,7-tetrahydro-3H-purin-3-yl)butyl)phosphonic acid], the melting point was in the range of 109 to 111 °C. Moreover, the Emax in data set [1] (setting [5]) turned out to be 116%. For the same molecule, in data set [1] (setting [6]), the EC50 was 13.6 ± 6.1 nM. Besides, the half-maximal effective concentration (EC50) in data set [2] (setting [7]) was 0.684 ± 0.073 nM. Further, the maximum response (Emax) in data set [2] (setting [8]) was found to be 108%. For the same molecule, the maximal response (Emax) in data set [3] (setting [9]) was found to be 91%. For the same molecule, the EC50 in data set [3] (setting [10]) stood at 0.075 ± 0.0184 nM. Besides, the Emax in data set [4] (setting [11]) stood at 109%. For the same molecule, in data set [4] (setting [12]), the 50% effective concentration (EC50) is 0.79 ± 0.262 nM.
On to `C#CCn1c(=O)c2c(nc(CCc3ccccc3Br)n2CCCl)n(CCCCP(=O)(O)O)c1=O` [B-50, (4-(8-(2-Bromophenethyl)-7-(2-chloroethyl)-2,6-dioxo-1-(prop-2-yn-1-yl)-1,2,6,7-tetrahydro-3H-purin-3-yl)butyl)phosphonic acid], for which the melting point lay in the range of 197 to 199 °C. In data set [1], this molecule had an EC50 of 24.3 ± 3.2 nM and an Emax of 91%. Further, in data set [2], the EC50 was determined as 2.28 ± 0.75 nM and the Emax was 118%. In data set [3], this molecule showed a 50% effective concentration (EC50) of 0.301 ± 0.021 nM and an Emax of 84%. Also, in data set [4], the EC50 was found to be 0.095 ± 0.0427 nM and the Emax was 111%.
`C#CCn1c(=O)c2c(nc(CCc3ccccc3Br)n2CCN)n(CCCCP(=O)(O)O)c1=O` [B-51, (4-(7-(2-Aminoethyl)-8-(2-bromophenethyl)-2,6-dioxo-1-(prop-2-yn-1-yl)-1,2,6,7-tetrahydro-3H-purin-3-yl)butyl)phosphonic acid] returned a melting point of 159 to 161 °C. Moreover, the maximal effect (Emax) in data set [1] (setting [5]) was 93%. For the same molecule, the EC50 in data set [1] (setting [6]) came to 566 ± 106 nM. Besides, the EC50 in data set [2] (setting [7]) is 79.8 ± 36.7 nM. The maximal response (Emax) in data set [2] (setting [8]) turned out to be 102%. For the same molecule, the Emax in data set [3] (setting [9]) worked out at 99%. Also, the EC50 in data set [3] (setting [10]) came out at 0.932 ± 0.177 nM. For the same molecule, the Emax in data set [4] (setting [11]) came to 107%. In addition, the 50% effective concentration (EC50) in data set [4] (setting [12]) was found to be 1.48 ± 0.4 nM.
As for `C#CCn1c(=O)c2[nH]c(CCc3cccc(OC)c3)nc2n(CCCCP(=O)(O)OCC)c1=O` [D-3, Ethyl hydrogen (4-(8-(3-methoxyphenethyl)-2,6-dioxo-1-(prop-2-yn-1-yl)-1,2,6,7-tetrahydro-3H-purin-3-yl)butyl)phosphonate], the melting point was 118 to 120 °C. The maximal effect (Emax) in data set [1] (Table 1, efficacy based on maximal effect of 100 nM B-16 (set as 100%), read-out: Emax) came out at 112%. Also, the EC50 in data set [1] (Table 1, β-arrestin recruitment, CHO cells, MRGPRX4-83L, means of 3-4 experiments, read-out: EC50 ± SEM) was found to be 407 ± 710 nM. Also, in data set [2] (Table 1, calcium mobilization, MRGPRX4-83L, read-out: EC50 ± SEM), the EC50 stood at 36.3 ± 1.8 nM. The Emax in data set [2] (Table 1, efficacy based on maximal effect of 1 μM B-16 (set as 100%), read-out: Emax) is 114%. In data set [3] (Table 2, efficacy based on 100 nM B-16 (set as 100%), read-out: Emax), the Emax was 110%. In data set [3] (Table 2, β-arrestin recruitment, CHO cells, MRGPRX4-83S, read-out: EC50 ± SEM), the EC50 turned out to be 5.8 ± 1.41 nM. Besides, in data set [4] (Table 2, efficacy based on 30 μM H-1 (set as 100%), read-out: Emax), the Emax worked out at 111%. The EC50 in data set [4] (Table 2, calcium mobilization, LN229 cells, MRGPRX4-83S, read-out: EC50 ± SEM) stood at 2.65 ± 0.72 nM.
